In US5252581A, “Substituted aminothienopyridines, pharmaceutical composition and use” (Hoechst-Roussel Pharmaceuticals Inc., priority 1992, dated 1993) one finds IC50, Emax and EC50 data, which are given here for 6 compounds.

Counter-ions that a name gives are not always drawn. Like-named read-outs stand apart in the source and are kept apart here.

The IC50 is the midpoint of a concentration-inhibition curve. A low value points to greater potency in that assay. For orientation: EC50 means the concentration at which the effect is half-maximal.

The target of one assay is T1, serotonin (5HT) uptake (Rattus norvegicus, UniProt P31652).
T1 construct: from tissue; host or cells: male Wistar rat whole brain minus cerebella, crude synaptosomes (S1)
Briefly: ^3 H-Serotonin Uptake in Rat Whole Brain Synaptosomes. Format: biochemical, rat (Wistar). Here is the method: A. Animals: Male CR Wistar rats (100-125 g).
3. […] This is used to dilute the specific activity of radiolabeled 5HT.
The dilution factor is 0.8.
5. For most assays, a 1 mM solution of the test compound is made up in suitable solvent and serially diluted such that the final concentration in the assay ranges from 2×10^-8 to 2×10^-5 M. Seven concentrations are used for each assay.
Male Wistar rats are decapitated and the brain rapidly removed. […] Homogenization should be done with 4-5 up and down strokes at medium speeds to minimize synaptosome lysis. […] The supernatant (S1) is decanted and is used for uptake experiments.
Tubes are incubated at 37° C. under a 95% O2 /5% CO2 atmosphere for 5 minutes. For each assay, 3 tubes are incubated with 20 μl of vehicle at 0° C. in an ice bath. After incubation all tubes are immediately centrifuged at 4000 g for 10 minutes. The supernatant fluid is aspirated and the pellets dissolved by adding 1 ml of solubilizer (Triton X-100+50% EtOH, 1:4 v/v). The tubes are vigorously vortexed, decanted into scintillation vials, and counted in 10 ml of Liquiscint scintillation counting cocktail. Active uptake is the difference between cpm at 37° C. and 0° C. The percent inhibition at each drug concentration is the mean of three determinations. IC50 values are derived from log-probit analysis.

Assay [1] concerns the target T2, NMDA associated strychnine-insensitive glycine modulatory site (Rattus norvegicus, UniProt P35439).
T2 construct: prepared from cortical tissue obtained from male Sprague Dawley rats; from tissue; host or cells: male Sprague Dawley rat cortex, crude synaptosomal homogenate
The experiment in a line: Enhancement of [^3 H]TCP Binding. Format: biochemical, rat (Sprague Dawley). To be noted: for Emax: read-out: Enhancement of [^3 H]TCP Binding, % maximal glycine response.

Another assay concerns the target T3, ^3 H-Dopamine reuptake (Rattus norvegicus, UniProt P23977).
T3 construct: str. = striatum; from tissue; host or cells: striatum, rat inferred
Briefly: Inhibition of Biogenic Amine Reuptake, ^3 H-Dopamine (Str). Format: biochemical. To be noted: str. = striatum.

A further assay has as its target T4, 5HT3 Receptor (Homo sapiens, UniProt P46098).
T4 sequence (P46098 24-478): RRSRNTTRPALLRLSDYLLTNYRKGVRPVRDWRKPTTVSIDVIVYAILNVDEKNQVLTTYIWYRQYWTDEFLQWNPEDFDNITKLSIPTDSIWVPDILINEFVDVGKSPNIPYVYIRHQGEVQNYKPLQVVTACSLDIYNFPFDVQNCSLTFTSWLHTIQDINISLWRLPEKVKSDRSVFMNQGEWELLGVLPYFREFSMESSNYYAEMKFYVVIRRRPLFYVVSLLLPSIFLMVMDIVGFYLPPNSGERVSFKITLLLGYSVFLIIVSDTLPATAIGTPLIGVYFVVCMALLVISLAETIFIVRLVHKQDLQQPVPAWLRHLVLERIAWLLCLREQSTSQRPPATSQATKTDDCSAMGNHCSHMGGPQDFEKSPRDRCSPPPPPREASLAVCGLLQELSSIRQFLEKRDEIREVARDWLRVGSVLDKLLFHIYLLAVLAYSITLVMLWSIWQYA
The experiment in a line: 5HT3 Receptor Binding Assay.

The target in assay [2] is T5, ^3 H-Norepinephrine reuptake (Rattus norvegicus, UniProt Q63380).
T5 construct: from tissue; host or cells: whole brain (WB), rat inferred
The experiment in a line: Inhibition of Biogenic Amine Reuptake, ^3 H-Norepinephrine (WB). It is filed as biochemical.

The target of assay [3] is T6, glycine binding site associated with the N-methyl-D-aspartate (NMDA) receptor complex (Rattus norvegicus, UniProt P35439).
T6 construct: Cortices of male Wistar rats are dissected over ice; from tissue; host or cells: male Wistar rat cortex, Triton-treated membranes
Briefly: Displacement of [^3 H]Glycine Binding. The arrangement: species or system rat (Wistar). The procedure:
Aliquots of 20 μl to the assay tube will give a final concentration of 10^-3 M.
4. […] Aliquots of 50 μl are added to yield a final assay concentration of 10 nM.
6. […] A stock solution of Triton-X 100, 10% can be prepared and stored in the refrigerator. Dilute 1.0 ml of Triton-X 100 to 10.0 ml with distilled water. On the day of the assay, the tissue homogenate (1:15 dilution) is preincubated with an aliquot of the 10% solution to give a final concentration of 0.04% (v/v).
Three cortices are pooled for one preparation.
1. Prepare assay tubes in triplicate.
2. Following the addition of the tissue, the tubes are incubated for 20 minutes in an ice-bath at 0°-4° C.
3. […] IC50 values for the competing compound are calculated by log-probit analysis of the data.

T1 sequence (P31652 whole entry): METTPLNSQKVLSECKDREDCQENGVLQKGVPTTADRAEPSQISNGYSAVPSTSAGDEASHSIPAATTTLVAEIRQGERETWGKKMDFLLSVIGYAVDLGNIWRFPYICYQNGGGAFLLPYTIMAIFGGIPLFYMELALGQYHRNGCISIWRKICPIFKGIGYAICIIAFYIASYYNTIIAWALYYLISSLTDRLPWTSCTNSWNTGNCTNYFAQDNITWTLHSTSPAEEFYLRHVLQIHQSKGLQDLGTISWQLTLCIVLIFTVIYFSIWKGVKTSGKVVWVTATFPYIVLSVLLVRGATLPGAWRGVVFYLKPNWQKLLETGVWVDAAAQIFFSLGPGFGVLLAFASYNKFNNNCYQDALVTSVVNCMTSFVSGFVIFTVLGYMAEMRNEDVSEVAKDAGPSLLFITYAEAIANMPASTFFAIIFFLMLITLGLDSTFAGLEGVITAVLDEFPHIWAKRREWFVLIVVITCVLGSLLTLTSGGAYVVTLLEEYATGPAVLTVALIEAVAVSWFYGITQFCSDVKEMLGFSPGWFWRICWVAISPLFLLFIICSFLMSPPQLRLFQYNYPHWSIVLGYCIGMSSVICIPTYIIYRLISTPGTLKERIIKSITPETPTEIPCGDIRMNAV
T3 sequence (P23977 whole entry): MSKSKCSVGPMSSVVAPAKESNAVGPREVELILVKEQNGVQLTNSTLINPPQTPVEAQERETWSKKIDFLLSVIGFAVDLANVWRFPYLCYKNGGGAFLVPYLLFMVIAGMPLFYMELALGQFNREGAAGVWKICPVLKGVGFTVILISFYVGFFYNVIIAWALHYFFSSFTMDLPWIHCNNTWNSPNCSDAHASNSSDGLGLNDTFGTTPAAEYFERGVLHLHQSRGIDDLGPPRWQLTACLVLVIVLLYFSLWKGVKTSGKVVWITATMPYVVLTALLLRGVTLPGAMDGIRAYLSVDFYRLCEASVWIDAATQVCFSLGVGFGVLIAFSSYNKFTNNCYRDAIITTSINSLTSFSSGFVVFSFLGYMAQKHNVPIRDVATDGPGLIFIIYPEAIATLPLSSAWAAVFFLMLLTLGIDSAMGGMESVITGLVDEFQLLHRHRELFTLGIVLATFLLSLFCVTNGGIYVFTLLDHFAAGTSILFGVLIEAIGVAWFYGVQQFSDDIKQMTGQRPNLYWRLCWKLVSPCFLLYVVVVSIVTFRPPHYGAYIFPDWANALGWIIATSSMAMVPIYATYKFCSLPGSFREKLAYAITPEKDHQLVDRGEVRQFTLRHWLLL
T5 sequence (Q63380 1-617): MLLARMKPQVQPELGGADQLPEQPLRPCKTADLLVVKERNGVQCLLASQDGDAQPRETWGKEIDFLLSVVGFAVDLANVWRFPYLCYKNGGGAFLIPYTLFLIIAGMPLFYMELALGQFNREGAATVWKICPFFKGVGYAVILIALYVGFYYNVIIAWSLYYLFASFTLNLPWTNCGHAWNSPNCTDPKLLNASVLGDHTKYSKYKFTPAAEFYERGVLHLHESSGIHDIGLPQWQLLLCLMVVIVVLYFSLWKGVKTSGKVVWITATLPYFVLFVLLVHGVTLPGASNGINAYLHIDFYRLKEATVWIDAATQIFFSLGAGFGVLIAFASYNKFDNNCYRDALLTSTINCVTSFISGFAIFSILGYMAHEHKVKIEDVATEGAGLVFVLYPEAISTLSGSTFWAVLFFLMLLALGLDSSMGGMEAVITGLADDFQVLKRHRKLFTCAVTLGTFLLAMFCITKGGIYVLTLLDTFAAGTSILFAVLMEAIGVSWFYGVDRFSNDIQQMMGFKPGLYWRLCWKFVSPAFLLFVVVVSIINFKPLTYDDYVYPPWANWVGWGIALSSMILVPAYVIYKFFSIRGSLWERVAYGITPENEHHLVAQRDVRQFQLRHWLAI

`CCCN(c1ccncc1)c1csc2cnccc12` [3-(Propyl-4-pyridinylamino)thieno[2,3-c]pyridine] had an IC50 on serotonin (5HT) uptake ([…]) of 0.54 µM.
Turning to `N[C@@H]1CONC1=O` [D-cycloserine, reference compound], the Emax in assay [1] stood at 80%.
For the compound `CN(C)CCCN1c2ccccc2CCc2ccc(Cl)cc21` [Clomipramine, reference compound], the figures for the IC50 at ^3 H-Dopamine reuptake and on 5HT3 Receptor were 31.5 µM and over 10 µM, respectively.
With `NCC(=O)O` [Glycine, glycine, reference compound], the Emax in assay [1] is 100%.
For `CCCN(c1ccncc1)c1csc2ncccc12` [3-(Propyl-4-pyridinylamino)-thieno[2,3-b]-pyridine hydrochloride], the IC50 stood at 0.71 µM in assay [2], 0.071 µM on serotonin (5HT) uptake and 4.6 µM at 5HT3 Receptor.
As for `NCC(=O)Nc1csc2ncccc12` [2-Amino-N-(thieno[2,3-b]pyridin-3-yl)acetamide], the half-maximal inhibitory concentration (IC50) in assay [3] was 21.8 µM. Besides, in assay [1] (rat cortical homogenate, 2.5 nM [^3 H]TCP, 10^-7 M L-glutamic acid), the EC50 was 14.4 µM. For the same compound, the Emax in assay [1] came to 39%.
